Results: patent US20140323457A1, “BETA-O/S/N FATTY ACID BASED COMPOUNDS AS ANTIBACTERIAL AND ANTIPROTOZOAL AGENTS” (LUDWIG-MAXIMILIANS-UNIVERSITÄT MÜNCHEN, priority 2011, published 2014)
Read-outs that look alike come from different tables or passages of the source.

Experiments:
[1] = system: S. aureus strain NCTC 8325; assay: minimal inhibiting concentration (MIC) in liquid bacterial culture; type: cell-based; conditions: overnight 37° C.
Protocol: (§1) 1 ml of an appropriate bacterial broth for the standard laboratory S. aureus strain NCTC 8325 were inoculated with 1*10^6 cfu. The cultures were kept overnight at 37° C. with gentle shaking 300 rpm in the presence of compounds AVU1Acid, AVU1AAc, AVU1AA or VK273 according to the present invention at different concentrations or dimethyl sulfoxide (DMSO) as control. Different beta-lactone virulence inhibitors were used as reference compounds. Following overnight incubation the optical density was measured in order to determine the minimal inhibiting concentration (MIC), which is defined as the lowest concentration of an antimicrobial that will inhibit the visible growth of a microorganism after overnight incubation. A 100 μl fraction of the supernatant of the grown bacterial cultures was subsequently analysed for the content of secreted bacterial hemolysins by addition of sheep red blood cells (10% v/v in PBS) and the measurement of the optical density at 410 nm after 30 min incubation at 37° C.

[2] = system: S. aureus strain NCTC 8325; assay: liquid culture-based hemolysis assay (secreted hemolysins, sheep red blood cells); type: cell-based
Protocol: The inhibition of hemolysin production has thus been further analysed in liquid bacterial cultures in order to evaluate their potential effects on bacterial growth simultaneously. Besides AVU1Acid, AVU1AAc, AVU1AA and VK273 the following further compounds were tested in liquid bacterial cultures:
as §1
The following results were obtained in further liquid culture-based hemolysis assays. Since the assays were performed at different times with different charges of sheep red blood cells AVU1 has been tested as a reference substance in each assay. The resulting EC50 values determined for the tested compounds have to be assessed with respect to the EC50 value determined for AVU1.

[3] = Assay 4, hemolysin production, assess relative to AVU1
[4] = Staphylococcus aureus, NCTC8325, Assay 3, read-out: MIC
[5] = Staphylococcus aureus, NCTC8325, Erythrocyte, Assay 3, hemolysin production, assess relative to AVU1
[6] = Staphylococcus aureus, NCTC8325, Assay 1, read-out: MIC
[7] = Staphylococcus aureus, NCTC8325, Erythrocyte, Assay 1, hemolysin production
[8] = Assay 2, hemolysin production, assess relative to AVU1

## C#CCCCCCCC[C@H](C(=O)O)[C@H](O)CCc1ccc(C2(C(F)(F)F)N=N2)cc1 (relative stereo) [JS-11_1, (3R*,2S*)-3-Hydroxy-2-(8-noninyl)-5-(4-(3-trifluoromethyl-3H-diazirinyl)-phenyl)-pentanoic acid]
[1]; Assay 4
  MIC: 10 to 50 µM
[2]; [3]
  EC50: 3.6 µM

## C#CCCCCCCC[C@@H](C(=O)O)[C@H](O)CCc1ccc(C2(C(F)(F)F)N=N2)cc1 (relative stereo) [JS-11_2, (3R*,2R*)-3-Hydroxy-2-(8-noninyl)-5-(4-(3-trifluoromethyl-3H-diazirinyl)-phenyl)-pentanoic acid]
[1]; Assay 4
  MIC: 10 to 50 µM
[2]; [3]
  EC50: 2.2 µM

## C#CCCCCCCC[C@H](C(=O)OC)[C@H](O)CCc1ccc(C2(C(F)(F)F)N=N2)cc1 (relative stereo) [JS-14_1, Methyl (3R*,2S*)-3-Hydroxy-2-(8-noninyl)-5-(4-(3-trifluoromethyl-3H-diazirinyl)-phenyl)-pentanoate]
[1]; Assay 4, read-out: MIC
  MIC: >1000 µM
[2]; [3]
  EC50: 166 µM

## C#CCCCCCCC[C@H](C(N)=O)[C@H](O)CCc1ccc(C2(C(F)(F)F)N=N2)cc1 (relative stereo) [JS-14_1Amid, (3R*,2S*)-3-Hydroxy-2-(8-noninyl)-5-(4-(3-trifluoromethyl-3H-diazirinyl)-phenyl)-pentanamide]
[1]; Assay 4, read-out: MIC
  MIC: >1000 µM
[2]; [3]
  EC50: 2.3 µM

## C#CCCCCCCC[C@@H](C(=O)OC)[C@H](O)CCc1ccc(C2(C(F)(F)F)N=N2)cc1 (relative stereo) [JS-14_2, Methyl (3R*,2R*)-3-Hydroxy-2-(8-noninyl)-5-(4-(3-trifluoromethyl-3H-diazirinyl)-phenyl)-pentanoate]
[1]; Assay 4, read-out: MIC
  MIC: >1000 µM
[2]; [3]
  EC50: 64 µM

## C#CCCCCCCC[C@@H](C(N)=O)[C@H](O)CCc1ccc(C2(C(F)(F)F)N=N2)cc1 (relative stereo) [JS-14_2Amid, (3R*,2R*)-3-Hydroxy-2-(8-noninyl)-5-(4-(3-trifluoromethyl-3H-diazirinyl)-phenyl)-pentanamide]
[1]; Assay 4, read-out: MIC
  MIC: >1000 µM
[2]; [3]
  EC50: 2.8 µM

## C=CCCCCCCC[C@@H](C(N)=O)[C@H](O)CCCc1ccccc1 (relative stereo) [VK375, (2R*,3R*)-3-Hydroxy-2-(non-8-enyl)-6-phenylhexanamide]
[1]; Assay 3, read-out: MIC
  MIC: >1000 µM
[1]; [4]
  MIC: > 1000 µM
[2]; [5]
  EC50: 1 to 5 µM

## NC(=O)[C@H](CCc1ccccc1)[C@H](O)CCc1ccccc1 (relative stereo) [VK403-1, (2R*,3R*)-3-Hydroxy-2-(2-phenylethyl)-5-phenylpentanamide]
[1]; Assay 3, read-out: MIC
  MIC: >1000 µM
[1]; [4]
  MIC: > 1000 µM
[2]; [5]
  EC50: 50 to 100 µM

## CCCCCCCCC[C@@H](C(N)=O)[C@H](O)CCc1ccccc1 (relative stereo) [VK453-1, (2R*,3R*)-3-Hydroxy-2-nonyl-5-phenylpentanamide]
[1]; Assay 2, read-out: MIC
  MIC: >1000 µM
[1]; Staphylococcus aureus, NCTC8325, Assay 2, read-out: MIC
  MIC: > 1000 µM
[2]; Staphylococcus aureus, NCTC8325, Erythrocyte, Assay 2, hemolysin production, assess relative to AVU1
  EC50: 1 to 5 µM

## C=CCCCCCCC[C@@H](C(N)=O)[C@H](O)Cc1ccccc1 (relative stereo) [VK508-3, (2R*,3R*)-3-Hydroxy-2-(non-8-enyl)-4-phenylbutanamide]
[1]; Assay 3, read-out: MIC
  MIC: >1000 µM
[1]; [4]
  MIC: > 1000 µM
[2]; [5]
  EC50: 10 to 50 µM

## C=CCCCCCCCC1OC(=O)C1CCc1ccccc1 (stereo not drawn) [AVU4, reference compound]
[1]; [6]
  MIC: > 1000 µM
[2]; [7]
  EC50: 435 µM

## C=CCCCCCCC[C@H]1C(=O)O[C@@H]1CCc1cc(F)cc(F)c1 [AVU5, reference compound]
[1]; [6]
  MIC: > 1000 µM
[2]; [7]
  EC50: 16.1 µM

## C=CCCCCCCC[C@H]1C(=O)O[C@@H]1Cc1ccccc1 [AVU6, reference compound]
[1]; [6]
  MIC: > 1000 µM
[2]; [7]
  EC50: 440 µM

## C=CCCCCCCC[C@H]1C(=O)O[C@@H]1CCCc1ccccc1 [AVU7, reference compound]
[1]; [6]
  MIC: > 1000 µM
[2]; [7]
  EC50: 22 µM

## C#CCCCCCCCC(C(=O)O)C(O)CCc1ccc(C(=O)c2ccccc2)cc1 (stereo not drawn) [JS-64, 5-(4-Benzoylphenyl)-3-hydroxy-2-(8-noninyl)-pentanoic acid]
[1]; Assay 2, read-out: MIC
  MIC: >1000 µM
[2]; [8]
  EC50: 1 to 5 µM

## C#CCCCCCCCC(C(N)=O)C(O)CCc1ccc(C(=O)c2ccccc2)cc1 (stereo not drawn) [JS-65, 5-(4-Benzoylphenyl)-3-hydroxy-2-(8-noninyl)-pentanamide]
[1]; Assay 2, read-out: MIC
  MIC: >1000 µM
[2]; [8]
  EC50: 1 to 5 µM
